This is an account of results in patent US9776972B2, “Pyrazole derivatives as arginine methyltransferase inhibitors and uses thereof” (priority 2013, dated 2017).

Structures are written as SMILES. Like-named read-outs stand apart in the source and are kept apart here. Where only a bound is given, the exact number is not on record here.

The test system of assay [1] is mono-methyl arginine in RKO cells. The assay can be described thus: RKO Methylation Assay, In Cell Western (ICW) for mono-methyl arginine and DNA content. To be noted: for EC30: Homo sapiens, RKO, 72 h; for EC30 (In Cell Western data): class symbols. The assay is classed as cell-based. The procedure, abridged:
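RKO cells treated with compound for 72 hours at 37 °C, then methanol-fixed and stained overnight at 4 °C with anti-mono-methyl arginine antibody, plus DRAQ5 for DNA. Signal ratio from 700 and 800 nm infrared scans normalized to DMSO (minimum) and 20 μM reference compound (maximum); EC30 from triplicate curves.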

The target in another assay is human PRMT8 (Homo sapiens, UniProt Q9NR22). The assay can be described thus: PRMT8 Biochemical Assay (3H-SAM Flashplate, peptide substrate). As to conditions: single experiment or average of multiple experiments. In short, it runs like this: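 E. coli-expressed human PRMT8 (GST removed) was preincubated with compound for 30 min at room temperature in 20 mM Bicine pH 7.6 with TCEP, BSG and Tween 20. 3H-SAM and a biotinylated H4 31-45 peptide were then added, and the reaction was stopped with cold SAM. Labelled peptide was captured on streptavidin Flashplates; % inhibition was calculated against DMSO and SAH controls and fitted to a 3- or 4-parameter curve.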

[2] abbreviates: RKO cells, 72 hours, mono-methyl arginine, percent activation, single experiment or average of multiple experiments, read-out: EC30 (In Cell Western data, Numerical).
Setting [3] is: read-out: EC30 (In Cell Western data, Numerical, μM).
Setting [4] is: RKO cells, 72 hours, mono-methyl arginine, percent activation.

human PRMT8, sequence (Q9NR22 whole entry): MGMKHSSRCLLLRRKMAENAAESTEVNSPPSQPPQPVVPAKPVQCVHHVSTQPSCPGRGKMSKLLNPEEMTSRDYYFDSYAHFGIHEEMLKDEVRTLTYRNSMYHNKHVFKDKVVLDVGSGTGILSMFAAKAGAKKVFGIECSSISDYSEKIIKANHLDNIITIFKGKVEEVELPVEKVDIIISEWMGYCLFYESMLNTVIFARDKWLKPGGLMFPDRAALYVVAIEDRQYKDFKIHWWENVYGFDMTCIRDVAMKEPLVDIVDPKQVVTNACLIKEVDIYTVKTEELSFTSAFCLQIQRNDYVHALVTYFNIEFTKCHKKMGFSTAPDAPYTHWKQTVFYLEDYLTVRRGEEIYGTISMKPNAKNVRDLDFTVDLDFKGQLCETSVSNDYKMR

As for `CN(CCN)Cc1c[nH]nc1-c1ccc(F)cc1` [Compound 1], in assay [1] (setting [2]), the EC30 came to 7.4 µM.
For `CN(CCN)Cc1cn(C)nc1-c1ccc(F)cc1` [Compound 3], the EC30 in assay [1] (setting [2]) is 16.2 µM. On human PRMT8, this compound returned an IC50 of 0.96 µM.
`CN(CCN)Cc1cnn(C)c1-c1ccc(F)cc1` [Compound 4]: in assay [1] (setting [3]), the EC30 was 12.1 µM. In addition, on human PRMT8, the IC50 was found to be 2.43 µM.
On to `COCCn1cc(CN(C)CCN)c(-c2ccc(F)cc2)n1` [Compound 5], for which the EC30 in assay [1] (setting [2]) is over 20 µM. Moreover, the IC50 against human PRMT8 turned out to be 4.2 µM.
With `CCN(CCNC)Cc1c[nH]nc1-c1ccc(F)cc1` [Compound 9], the IC50 on human PRMT8 turned out to be 0.396 µM.
Turning to `CNCCN(C)Cc1cnn(C)c1-c1ccc(F)cc1` [Compound 10], the IC50 against human PRMT8 was 0.693 µM.
`CNCCN(C)Cc1c[nH]nc1-c1cccc(N)c1` [Compound 32]: the “EC30 (In Cell Western data)” value in assay [1] (setting [4]) is given as “C (“C” indicates an EC30 ≧ 12.01 μM)”. The compound further gave an IC50 at human PRMT8 of 1.53 µM.
`CNCCN(C)Cc1c[nH]nc1-c1ccc(CC#N)cc1` [Compound 34]: in assay [1] (setting [4]), the “EC30 (In Cell Western data)” value was “C (“C” indicates an EC30 ≧ 12.01 μM)”. The IC50 against human PRMT8 is 0.773 µM.
The matching figures for `CNCCN(C)Cc1c[nH]nc1-c1ccccc1O` [Compound 35]: “C (“C” indicates an EC30 ≧ 12.01 μM)” and 24.8 µM.
For the compound `CNCCN(C)Cc1c[nH]nc1-c1cccc(OC(F)(F)F)c1` [Compound 39], the IC50 against human PRMT8 worked out at 0.596 µM.
Consider `CNCCN(C)Cc1c[nH]nc1-c1ccccc1NS(C)(=O)=O` [Compound 41], for which the “EC30 (In Cell Western data)” value in assay [1] (setting [4]) is reported as “C (“C” indicates an EC30 ≧ 12.01 μM)”. For the same compound, the IC50 against human PRMT8 was determined as 40 µM.
For `CNCCN(C)Cc1c[nH]nc1-c1cccc(NC(C)=O)c1` [Compound 42], the “EC30 (In Cell Western data)” value in assay [1] (setting [4]) was “C (“C” indicates an EC30 ≧ 12.01 μM)”. At human PRMT8, this compound yielded an IC50 of 1.54 µM.
In the case of `CNCCN(C)Cc1c[nH]nc1-c1cccc(C(C)=O)c1` [Compound 44], the “EC30 (In Cell Western data)” value in assay [1] (setting [4]) was “C (“C” indicates an EC30 ≧ 12.01 μM)”. This compound yielded an IC50 against human PRMT8 of 0.522 µM.
Take `CNCCN(C)Cc1c[nH]nc1-c1ccc(-c2ccccc2)cc1` [Compound 47]: the “EC30 (In Cell Western data)” value in assay [1] (setting [4]) is given as “A (“A” indicates an EC30 ≦ 3.00 μM)”. Besides, the “EC30 (In Cell Western data, Numerical, μM)” value in assay [1] (RKO cells, 72 hours, mono-methyl arginine, percent activation, single experiment or average of multiple experiments) stood at 0.104 µM. In addition, the midpoint of inhibition on human PRMT8, the IC50, lay at 0.0908 µM.
Consider `CNCCN(C)Cc1c[nH]nc1-c1ccccc1F` [Compound 48], for which, on human PRMT8, the IC50 was 2.17 µM.
Take `CC(C)Oc1ccc(-c2n[nH]cc2CN(C)CCN)cc1` [Compound 67]: the 30% effect concentration (EC30) in assay [1] (setting [2]) was determined as 0.507 µM.
Consider `CN(CCN)Cc1n[nH]cc1-c1ccc(F)cc1` [Compound 69], for which the EC30 in assay [1] (setting [2]) amounted to 7.99 µM. The compound also had an IC50 at human PRMT8 of 2.04 µM.
For `CN(CCN)Cc1c[nH]nc1-c1cccc(C#N)c1` [Compound 70], the EC30 in assay [1] (setting [2]) was over 20 µM. The compound further returned an IC50 against human PRMT8 of 2.49 µM.
For `CN(CCN)Cc1c[nH]nc1-c1cccc(F)c1` [Compound 71] the same measures were 3.72 µM and 0.347 µM.
With `CN(CCN)Cc1c[nH]nc1-c1ccccc1F` [Compound 72], 3.73 µM corresponded to half-maximal inhibition against human PRMT8 (IC50).
With `CN(CCN)Cc1c[nH]nc1-c1ccccc1` [Compound 73], the EC30 in assay [1] (setting [2]) turned out to be 14.7 µM. In addition, half-maximal inhibition against human PRMT8 (IC50) required 0.959 µM.
For `CN(CCN)Cc1c[nH]nc1-c1ccc(C(C)(C)C)cc1` [Compound 74] the same measures were 6.34 µM and 0.185 µM.
In the case of `CC(C)N(CCN)Cc1c[nH]nc1-c1ccc(F)cc1` [Compound 75], the EC30 in assay [1] (setting [2]) is over 20 µM. The compound further showed a 50% inhibitory concentration (IC50) against human PRMT8 of 2.51 µM.
Consider `CN(CCN)Cc1cn(C2COC2)nc1-c1ccc(F)cc1` [Compound 77], for which, in assay [1] (setting [3]), the EC30 stood at 12.5 µM. At human PRMT8, this compound showed an IC50 of 1.66 µM.
Take `NCCN(Cc1c[nH]nc1-c1ccc(F)cc1)C1CC1` [Compound 78]: the EC30 in assay [1] (setting [2]) stood at 10.6 µM. The compound also had a half-maximal inhibitory concentration (IC50) against human PRMT8 of 1.49 µM.
The matching figures for `CN(CCN)Cc1cnn(C2COC2)c1-c1ccc(F)cc1` [Compound 81]: over 20 µM and 3.45 µM.
For `CN(CCN)Cc1c[nH]nc1-c1ccc(N2CCNCC2)cc1` [Compound 82] the same measures were over 20 µM and 2.47 µM.
The matching figures for `CN(CCN)Cc1nn(C)cc1-c1ccc(C#N)cc1` [Compound 83]: 6.75 µM and 0.71 µM.
`CN(CCN)Cc1c[nH]nc1-c1ccc(C(F)(F)F)cc1C(F)(F)F` [Compound 85]: the concentration for an effect of 30% (EC30) in assay [1] (setting [3]) was over 20 µM. Besides, on human PRMT8, the half-inhibitory concentration (IC50) came out at 4.26 µM.
Turning to `CN(CCN)Cc1c[nH]nc1-c1ccc(Cl)cc1Cl` [Compound 86], the EC30 in assay [1] (setting [2]) came to 5.63 µM. This compound also yielded a half-inhibitory concentration (IC50) at human PRMT8 of 0.74 µM.
The matching figures for `COc1ccc(-c2n[nH]cc2CN(C)CCN)c(OC)c1` [Compound 87]: over 20 µM and 3.11 µM.
`Cc1ccc(-c2n[nH]cc2CN(C)CCN)c(C)c1` [Compound 88]: the EC30 in assay [1] (setting [2]) worked out at 14.5 µM. The compound further yielded an IC50 at human PRMT8 of 1.89 µM.
For the compound `CN(CCN)Cc1c[nH]nc1-c1ccc(F)cc1Cl` [Compound 89], the EC30 in assay [1] (setting [2]) came to 11 µM. This compound returned an IC50 against human PRMT8 of 1.73 µM.
In the case of `Cc1ccc(-c2n[nH]cc2CN(C)CCN)c(Cl)c1` [Compound 90], in assay [1] (setting [2]), the 30% effect concentration (EC30) worked out at 10.4 µM. At human PRMT8, this compound gave a concentration for half-maximal inhibition (IC50) of 1.38 µM.
For `Cc1ccc(Cl)c(-c2n[nH]cc2CN(C)CCN)c1` [Compound 91] the same measures were over 20 µM and 6.9 µM.
In the case of `CN(CCN)Cc1c[nH]nc1-c1ccc(C(F)(F)F)cc1` [Compound 92], the EC30 in assay [1] (setting [2]) came out at 0.956 µM. The IC50 on human PRMT8 was 0.152 µM.
The matching figures for `CN(CCN)Cc1c[nH]nc1-c1ccc(OC(F)(F)F)cc1` [Compound 93]: 1.11 µM and 0.0761 µM.
For `CN(CCN)Cc1c[nH]nc1-c1ccc(OC(F)F)cc1` [Compound 94] the same measures were 1.78 µM and 0.198 µM.
For `CN(CCN)Cc1c[nH]nc1-c1ccc(Cl)cc1` [Compound 95] the same measures were 1.23 µM and 0.207 µM.
Turning to `CC(C)Oc1ccc(-c2n[nH]cc2CN(C)CCN)cc1Cl` [Compound 168], the EC30 in assay [1] (setting [2]) stood at 0.066 µM.

In general, EC30 refers to the concentration at which the effect reaches the 30% level. As a reminder, the IC50 is the concentration needed to halve the response being measured. Higher therefore signals a need for much substance.
